≈ marks a conversion by molar mass, not a printed value.

This note sets out measurements from ChEMBL document CHEMBL4219157, “Alkylated/aminated nitroimidazoles and nitroimidazole-7-chloroquinoline conjugates: Synthesis and anti-mycobacterial evaluation” (Bioorg Med Chem Lett, 2018).

For data set [1], the system named is Mycobacterium tuberculosis. Briefly: Antitubercular activity against Mycobacterium tuberculosis mc2 6230 after 7 days by broth microdilution assay. The conditions noted are these: mc2 6230, 168 h. The data set is classed as functional.
In data set [2] the test system is J774. Briefly: Cytotoxicity against mouse J774 cells assessed as decrease in cell viability after 24 hrs by resazurin based assay. The conditions noted are these: J774, 24 h.
A short description of data set [3]: Selectivity index, ratio of IC50 for mouse J774 cells to MIC50 for Mycobacterium tuberculosis mc2 6230. It counts as toxicity. The conditions noted are these: read-out: Selectivity Index.

In data set [1], `Clc1ccc2c(N3CCNCC3)ccnc2c1` yielded an MIC50 of 92 µg/mL (≈ 371 µM).

For the molecule `Cc1ncc([N+](=O)[O-])n1CCCN1CCN(c2ccnc3cc(Cl)ccc23)CC1`, in data set [2], the half-maximal inhibitory concentration (IC50) was above 100 µg/mL. This molecule also showed an MIC50 in data set [1] of 3.8 µg/mL (≈ 9.16 µM). Besides, the selectivity ratio in data set [3] is above 26.3.

With `Cc1ncc([N+](=O)[O-])n1CCCN1CCCC1`, the concentration for half-maximal inhibition (IC50) in data set [2] is above 100 µg/mL. The molecule also came in with an MIC50 in data set [1] of 19.3 µg/mL (≈ 81 µM). Besides, the selectivity ratio in data set [3] is above 5.2.

`Cc1ncc([N+](=O)[O-])n1CCCCCN1CCN(c2ccnc3cc(Cl)ccc23)CC1`: the IC50 in data set [2] came to 28.9 µg/mL (≈ 65.2 µM). In data set [1], this molecule displayed an MIC50 of 5.2 µg/mL (≈ 11.7 µM). The selectivity ratio in data set [3] came out at 5.6.

Consider `Cc1ncc([N+](=O)[O-])n1CCCCN1CCCCC1`, for which the half-inhibitory concentration (IC50) in data set [2] was above 100 µg/mL. In data set [1], this molecule registered an MIC50 of 19.3 µg/mL (≈ 72.5 µM). Besides, in data set [3], the selectivity ratio was above 5.2.

On to `Cc1ncc([N+](=O)[O-])n1CCCCCN1CCCC1`, for which the IC50 in data set [2] was above 100 µg/mL. This molecule gave an MIC50 in data set [1] of 12.3 µg/mL (≈ 46.2 µM). For the same molecule, the selectivity ratio in data set [3] was above 8.1.

Regarding `Cc1ncc([N+](=O)[O-])n1CCCCN1CCCC1`, the half-inhibitory concentration (IC50) in data set [2] was above 100 µg/mL. The molecule also showed an MIC50 in data set [1] of 12.6 µg/mL (≈ 49.9 µM). For the same molecule, the selectivity ratio in data set [3] was above 8.

For the molecule `Cc1ncc([N+](=O)[O-])n1CCCCCN1CCCCC1`, the half-inhibitory concentration (IC50) in data set [2] is above 100 µg/mL. For the same molecule, in data set [1], the MIC50 amounted to 49 µg/mL (≈ 175 µM). In addition, the selectivity ratio in data set [3] is above 2.

Take `Cc1ncc([N+](=O)[O-])n1CCCCCCN1CCN(c2ccnc3cc(Cl)ccc23)CC1`: the IC50 in data set [2] is below 0.8 µg/mL. This molecule gave an MIC50 in data set [1] of 1.2 µg/mL (≈ 2.63 µM). Further, the selectivity ratio in data set [3] is below 0.66.

As for `Cc1ncc([N+](=O)[O-])n1CCCN1CCCCC1`, the IC50 in data set [2] was above 100 µg/mL. The molecule also registered an MIC50 in data set [1] above 100 µg/mL.

For `Cc1ncc([N+](=O)[O-])n1CCCCN1CCOCC1`, the 50% inhibitory concentration (IC50) in data set [2] is above 100 µg/mL. In data set [1], the MIC50 turned out to be 23.1 µg/mL (≈ 86.1 µM). Moreover, in data set [3], the selectivity ratio is above 4.3.

As for `Cc1ncc([N+](=O)[O-])n1CCCCCCBr`, the IC50 in data set [2] was determined as 69.9 µg/mL (≈ 241 µM). Also, the MIC50 in data set [1] was 4.9 µg/mL (≈ 16.9 µM). For the same molecule, in data set [3], the selectivity ratio amounted to 14.1.

Turning to `Cc1ncc([N+](=O)[O-])n1CCCCBr`, the IC50 in data set [2] came to 61 µg/mL (≈ 233 µM). Besides, the MIC50 in data set [1] was 17.7 µg/mL (≈ 67.5 µM). The selectivity ratio in data set [3] was found to be 3.4.

Regarding `Cc1ncc([N+](=O)[O-])n1CCCCCN1CCOCC1`, the IC50 in data set [2] was above 100 µg/mL. The MIC50 in data set [1] was above 100 µg/mL.

For the molecule `Cc1ncc([N+](=O)[O-])n1CCCN1CCOCC1`, the half-inhibitory concentration (IC50) in data set [2] was above 100 µg/mL. The same molecule registered an MIC50 in data set [1] of 18 µg/mL (≈ 70.8 µM). Moreover, the selectivity ratio in data set [3] is above 5.5.

Turning to `Cc1ncc([N+](=O)[O-])n1CCCBr`, in data set [2], the IC50 turned out to be 54.8 µg/mL (≈ 221 µM). In data set [1], this molecule returned an MIC50 of 5.3 µg/mL (≈ 21.4 µM). Besides, the selectivity ratio in data set [3] came to 10.3.

On to `Cc1ncc([N+](=O)[O-])n1CCCCCBr`, for which, in data set [2], the IC50 was found to be 83 µg/mL (≈ 301 µM). Also, the MIC50 in data set [1] was 13.3 µg/mL (≈ 48.2 µM). For the same molecule, in data set [3], the selectivity ratio turned out to be 6.2.

As to `Cc1ncc([N+](=O)[O-])n1CCCCN1CCN(c2ccnc3cc(Cl)ccc23)CC1`, the IC50 in data set [2] is above 100 µg/mL. In addition, in data set [1], the MIC50 turned out to be 2.2 µg/mL (≈ 5.13 µM). Further, the selectivity ratio in data set [3] is above 45.3.

`NNC(=O)c1ccncc1` [ISONIAZID] yielded an MIC50 in data set [1] of 0.019 µg/mL (≈ 0.139 µM).
